Data on 32 compounds can be found in patent US9790215B2 (FLATLEY DISCOVERY LAB, LLC, priority 2013, dated 2017).

The term EC50 denotes the concentration that produces a half-maximal response.

The target in this test is T1, human ΔF508-CFTR (Homo sapiens, UniProt P13569, DEL508-508).
T1 construct: expressed in transfected cells
In words: CFTR-YFP High Throughput Assay (YFP halide flux in FRT cells). Particulars: FRT cells expressing human ΔF508-CFTR and YFP; for EC50: forskolin stimulated. The test is classed as cell-based. A digest of the protocol: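 FRT cells stably co-expressing human ΔF508-CFTR and halide-sensitive YFP-H148Q/I152L were treated with compound […] for 24–26 h at 37 °C (corrector mode), washed, then stimulated with 20 μM forskolin plus 30 μM potentiator P3 for 60–120 min at room temperature. Iodide-induced YFP quench (ex 500/em 540 nm) rates came from least-squares fitting.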

T1 sequence (P13569 with tags, fused parts or gaps DEL508-508): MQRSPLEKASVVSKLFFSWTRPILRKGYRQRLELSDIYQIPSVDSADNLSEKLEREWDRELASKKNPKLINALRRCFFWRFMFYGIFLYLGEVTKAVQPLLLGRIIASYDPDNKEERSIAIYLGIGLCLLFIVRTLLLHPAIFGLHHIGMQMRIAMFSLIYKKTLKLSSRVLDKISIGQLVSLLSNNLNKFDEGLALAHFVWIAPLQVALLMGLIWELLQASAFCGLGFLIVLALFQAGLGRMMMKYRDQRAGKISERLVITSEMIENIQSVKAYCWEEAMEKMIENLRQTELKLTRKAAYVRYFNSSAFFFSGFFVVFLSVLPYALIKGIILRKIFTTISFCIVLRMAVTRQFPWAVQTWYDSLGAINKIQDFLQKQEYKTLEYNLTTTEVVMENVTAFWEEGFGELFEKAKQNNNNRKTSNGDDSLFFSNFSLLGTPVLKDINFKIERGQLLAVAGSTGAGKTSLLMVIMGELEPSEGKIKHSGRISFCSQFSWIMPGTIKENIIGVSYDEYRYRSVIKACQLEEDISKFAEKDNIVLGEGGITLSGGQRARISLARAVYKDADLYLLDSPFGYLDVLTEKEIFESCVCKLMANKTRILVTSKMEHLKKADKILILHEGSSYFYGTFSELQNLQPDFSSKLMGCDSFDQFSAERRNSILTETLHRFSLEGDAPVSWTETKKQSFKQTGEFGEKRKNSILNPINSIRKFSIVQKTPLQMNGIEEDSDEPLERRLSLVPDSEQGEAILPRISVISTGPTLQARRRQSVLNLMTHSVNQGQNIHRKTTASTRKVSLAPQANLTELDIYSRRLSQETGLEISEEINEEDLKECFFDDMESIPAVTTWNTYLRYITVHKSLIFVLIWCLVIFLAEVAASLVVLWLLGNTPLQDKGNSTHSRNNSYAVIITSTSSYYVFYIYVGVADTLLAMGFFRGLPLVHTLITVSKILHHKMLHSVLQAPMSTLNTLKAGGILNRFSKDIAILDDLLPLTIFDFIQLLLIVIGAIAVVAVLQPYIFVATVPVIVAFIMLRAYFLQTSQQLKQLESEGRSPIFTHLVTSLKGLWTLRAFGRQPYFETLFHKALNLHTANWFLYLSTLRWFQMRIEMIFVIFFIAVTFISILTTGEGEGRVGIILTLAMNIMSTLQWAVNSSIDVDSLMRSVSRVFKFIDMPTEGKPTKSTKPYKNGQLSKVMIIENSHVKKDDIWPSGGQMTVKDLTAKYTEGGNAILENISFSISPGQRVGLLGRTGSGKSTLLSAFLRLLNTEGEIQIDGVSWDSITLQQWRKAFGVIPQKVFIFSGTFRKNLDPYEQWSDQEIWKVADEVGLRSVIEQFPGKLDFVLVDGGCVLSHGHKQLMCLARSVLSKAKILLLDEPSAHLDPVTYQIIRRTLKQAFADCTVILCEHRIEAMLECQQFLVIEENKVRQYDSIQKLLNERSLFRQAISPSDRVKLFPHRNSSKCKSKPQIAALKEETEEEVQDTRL

Take `CCN(C(=O)Cn1ncc2c(c1=O)c1ccccc1n2Cc1ccccc1C#N)c1ccc2c(c1)OC(F)(F)O2` [Example 95, 2-(5-(2-cyanobenzyl)-1-oxo-1H-pyridazino[4,5-b]indol-2(5H)-yl)-N-(2,2-difluorobenzo[d][1,3]dioxol-5-yl)-N-ethylacetamide]: the EC50 is below 10 µM.

With `CCN(C(=O)Cn1ncc2c(c1=O)c1ccccc1n2Cc1cccc(C#N)c1)c1ccc2c(c1)OC(F)(F)O2` [Example 96, 2-(5-(3-cyanobenzyl)-1-oxo-1H-pyridazino[4,5-b]indol-2(5H)-yl)-N-(2,2-difluorobenzo[d][1,3]dioxol-5-yl)-N-ethylacetamide], the EC50 is below 10 µM.

As for `CCN(C(=O)Cn1ncc2c(c1=O)c1ccccc1n2Cc1ccncc1)c1ccc2c(c1)OC(F)(F)O2` [Example 97, N-(2,2-difluorobenzo[d] [1,3]dioxol-5-yl)-N-ethyl-2-(1-oxo-5-(pyridin-4-ylmethyl)-1H-pyridazino[4,5-b]indol-2(5H)-yl)acetamide], the EC50 was below 10 µM.

In the case of `Cc1ccc(-n2nc(C(=O)N3CCCCC3)c3c4ccccc4n(C)c3c2=O)cc1` [Example 101, 5-methyl-1-(piperidine-1-carbonyl)-3-p-tolyl-3H-pyridazino[4,5-b]indol-4(5H)-one], the EC50 is below 10 µM.

Take `CCN(C(=O)c1nn(-c2ccccc2)c(=O)c2c1c1ccccc1n2C)c1ccncn1` [Example 102, N-ethyl-5-methyl-4-oxo-3-phenyl-N-(pyrimidin-4-yl)-4,5-dihydro-3H-pyridazino[4,5-b]indole-1-carboxamide]: the EC50 was below 10 µM.

Regarding `Cc1ccc(-n2nc(C(=O)N(c3ccccc3)C(C)C)c3c4ccccc4n(C)c3c2=O)cc1` [Example 103, N-isopropyl-5-methyl-4-oxo-N-phenyl-3-(p-tolyl)-4,5-dihydro-3H-pyridazino[4,5-b]indole-1-carboxamide], the EC50 was below 10 µM.

As for `Cc1ccc(-n2nc(C(=O)N(c3ccccc3)C3CC3)c3c4ccccc4n(C)c3c2=O)cc1` [Example 104, N-cyclopropyl-5-methyl-4-oxo-N-phenyl-3-(p-tolyl)-4,5-dihydro-3H-pyridazino[4,5-b]indole-1-carboxamide], the EC50 is below 10 µM.

For the compound `Cc1ccc(-n2nc(C(=O)N(CC#N)c3ccccc3)c3c4ccccc4n(C)c3c2=O)cc1` [Example 105, N-(cyanomethyl)-5-methyl-4-oxo-N-phenyl-3-(p-tolyl)-4,5-dihydro-3H-pyridazino[4,5-b]indole-1-carboxamide], the EC50 was below 10 µM.

Regarding `CCN(CC)C(=O)c1nn(-c2ccc(C)cc2)c(=O)c2c1c1ccccc1n2C` [Example 106, N,N-diethyl-5-methyl-4-oxo-3-(p-tolyl)-4,5-dihydro-3H-pyridazino[4,5-b]indole-1-carboxamide], the EC50 was below 10 µM.

On to `CCN(C(=O)c1nn(-c2ccc(C)cc2)c(=O)c2c1c1ccccc1n2C)c1ccccn1` [Example 107, N-ethyl-5-methyl-4-oxo-N-(pyridin-2-yl)-3-(p-tolyl)-4,5-dihydro-3H-pyridazino[4,5-b]indole-1-carboxamide], for which the EC50 is below 10 µM.

With `CCN(C(=O)c1nn(-c2ccc(C)cc2)c(=O)c2c1c1ccccc1n2C)c1cccnc1` [Example 108, N-ethyl-5-methyl-4-oxo-N-(pyridin-3-yl)-3-(p-tolyl)-4,5-dehydro-3H-pyridazino[4,5-b]indole-1-carboxamide], the EC50 is below 10 µM.

In the case of `CCN(C(=O)c1nn(-c2ccccc2)c(=O)c2c1c1ccccc1n2C)c1ccncc1` [Example 109, N-ethyl-5-methyl-4-oxo-3-phenyl-N-(pyridin-4-yl)-4,5-dihydro-3H-pyridazino[4,5-b]indole-1-carboxamide], the EC50 was below 10 µM.

Turning to `Cc1ccc(-n2nc(C(=O)N3CCCc4ccccc43)c3c4ccccc4n(C)c3c2=O)cc1` [Example 110, 5-methyl-1-(1,2,3,4-tetrahydroquinoline-1-carbonyl)-3-(p-tolyl)-3H-pyridazino[4,5-b]indol-4(5H)-one], the EC50 was below 10 µM.

Turning to `CCN(C(=O)c1nn(-c2ccc(C)cc2)c(=O)c2c1c1ccccc1n2C)C1CC1` [Example 111, N-cyclopropyl-N-ethyl-5-methyl-4-oxo-3-(p-tolyl)-4,5-dihydro-3H-pyridazino[4,5-b]indole-1-carboxamide], the EC50 was below 10 µM.

On to `Cc1ccc(-n2nc(C(=O)N3CCN(Cc4ccccc4)CC3)c3c4ccccc4n(C)c3c2=O)cc1` [Example 112, 1-(4-benzylpiperazine-1-carbonyl)-5-methyl-3-(p-tolyl)-3H-pyridazino[4,5-b]indol-4(5H)-one], for which the EC50 is below 10 µM.

As for `CCN(C(=O)c1nn(-c2ccccc2)c(=O)c2c1c1ccccc1n2C)c1ncccn1` [Example 113, N-ethyl-5-methyl-4-oxo-3-phenyl-N-(pyrimidin-2-yl)-4,5-dihydro-3H-pyridazino[4,5-b]indole-1-carboxamide], the EC50 is above 20 µM.

Turning to `Cc1ccc(-n2nc(C(=O)N(CC(=O)O)c3ccccc3)c3c4ccccc4n(C)c3c2=O)cc1` [Example 114, 2-(5-methyl-4-oxo-N-phenyl-3-(p-tolyl)-4,5-dihydro-3H-pyridazino[4,5-b]indole-1-carboxamido) acetic acid], the EC50 was above 20 µM.

Consider `CCN(C(=O)c1nn(-c2ccccc2)c(=O)c2c1c1ccccc1n2C)c1ncnc2c1cnn2C` [Example 115, N-ethyl-5-methyl-N-(1-methyl-1H-pyrazolo[3,4-d]pyrimidin-4-yl)-4-oxo-3-phenyl-4,5-dihydro-3H-pyridazino[4,5-b]indole-1-carboxamide], for which the EC50 was in the range of 10 to 20 µM.

With `CCN(C(=O)c1nn(-c2ccccn2)c(=O)c2c1c1ccccc1n2C)c1ccccc1` [Example 118, N-ethyl-5-methyl-4-oxo-N-phenyl-3-(pyridin-2-yl)-4,5-dihydro-3H-pyridazino[4,5-b]indole-1-carboxamide], the EC50 was below 10 µM.

`CCN(C(=O)c1nn(-c2cccnc2)c(=O)c2c1c1ccccc1n2C)c1ccccc1` [Example 119]: the 50% effective concentration (EC50) was below 10 µM.

In the case of `CCN(C(=O)c1nn(-c2ccncc2)c(=O)c2c1c1ccccc1n2C)c1ccccc1` [Example 120, N-ethyl-5-methyl-4-oxo-N-phenyl-3-(pyridin-4-yl)-4,5-dihydro-3H-pyridazino[4,5-b]indole-1-carboxamide], the EC50 was below 10 µM.

In the case of `CCN(C(=O)c1nn(-c2nccs2)c(=O)c2c1c1ccccc1n2C)c1ccccc1` [Example 121, N-ethyl-5-methyl-4-oxo-N-phenyl-3-(thiazol-2-yl)-4,5-dihydro-3H-pyridazino[4,5-b]indole-1-carboxamide], the EC50 is below 10 µM.

Turning to `CCN(C(=O)c1nn(-c2ncccn2)c(=O)c2c1c1ccccc1n2C)c1ccccc1` [Example 122, N-ethyl-5-methyl-4-oxo-N-phenyl-3-(pyrimidin-2-yl)-4,5-dihydro-3H-pyridazino[4,5-b]indole-1-carboxamide], the EC50 lay in the range of 10 to 20 µM.

As to `CCN(C(=O)c1nn(-c2nc3ccccc3s2)c(=O)c2c1c1ccccc1n2C)c1ccccc1` [Example 123, 3-(benzo[d]thiazol-2-yl)-N-ethyl-5-methyl-4-oxo-N-phenyl-4,5-dihydro-3H-pyridazino[4,5-b]indole-1-carboxamide], the EC50 was in the range of 10 to 20 µM.

Regarding `CCN(C(=O)c1nn(-c2nc3ccccc3n2C)c(=O)c2c1c1ccccc1n2C)c1ccccc1` [Example 124, N-ethyl-5-methyl-3-(1-methyl-1H-benzo[d]imidazol-2-yl)-4-oxo-N-phenyl-4,5-dihydro-3H-pyridazino[4,5-b]indole-1-carboxamide], the EC50 was above 20 µM.

In the case of `CCN(C(=O)c1nn(-c2ccccc2F)c(=O)c2c1c1ccccc1n2C)c1ccccc1` [Example 125, N-ethyl-3-(2-fluorophenyl)-5-methyl-4-oxo-N-phenyl-4,5-dihydro-3H-pyridazino[4,5-b]indole-1-carboxamide], the EC50 was below 10 µM.

As for `CCN(C(=O)c1nn(-c2ccccc2)c(=O)c2c1c1ccccc1n2C)c1cccc(F)c1` [Example 126, N-ethyl-N-(3-fluorophenyl)-5-methyl-4-oxo-3-phenyl-4,5-dihydro-3H-pyridazino[4,5-b]indole-1-carboxamide], the EC50 is below 10 µM.

Consider `CCN(C(=O)c1nn(-c2ccccc2F)c(=O)c2c1c1ccccc1n2C)c1ccccc1` [Example 127, N-ethyl-3-(2-fluorophenyl)-5-methyl-4-oxo-N-phenyl-4,5-dihydro-3H-pyridazino[4,5-b]indole-1-carboxamide], for which the concentration for a half-maximal effect (EC50) is below 10 µM. Besides, the “% Efficacy (Emax normalized to the positive control)” value (Emax normalized to the positive control) is listed as “+++ (EMAX > 80%)”.

As to `CCN(C(=O)c1nn(-c2cnc3ccccc3c2)c(=O)c2c1c1ccccc1n2C)c1ccccc1` [Example 128, N-ethyl-5-methyl-4-oxo-N-phenyl-3-(quinolin-3-yl)-4,5-dihydro-3H-pyridazino[4,5-b]indole-1-carboxamide], the EC50 was below 10 µM.

Take `CCN(C(=O)c1nn(-c2ccc(Cl)cc2)c(=O)c2c1c1ccccc1n2C)c1ccccc1` [Example 129, 3-(4-chlorophenyl)-N-ethyl-5-methyl-4-oxo-N-phenyl-4,5-dihydro-3H-pyridazino[4,5-b]indole-1-carboxamide]: the EC50 is below 10 µM.

As for `CCN(C(=O)c1nn(-c2ccc(OC)cc2)c(=O)c2c1c1ccccc1n2C)c1ccccc1` [Example 130, N-ethyl-3-(4-methoxyphenyl)-5-methyl-4-oxo-N-phenyl-4,5-dihydro-3H-pyridazino[4,5-b]indole-1-carboxamide], the EC50 was below 10 µM.

Take `CCN(C(=O)c1nn(-c2ccc(C)cn2)c(=O)c2c1c1ccccc1n2C)c1ccccc1` [Example 131, N-ethyl-5-methyl-3-(5-methylpyridin-2-yl)-4-oxo-N-phenyl-4,5-dihydro-3H-pyridazino[4,5-b]indole-1-carboxamide]: the EC50 is below 10 µM.
